# Measured values from the Kinase Knowledgebase extract (Sharma et al. 2016).
# Target: PIK3CD (Human) (UniProt O00329)
# Experiment: Assessment of PIK3CD Kinase Activity (Scintillation Proximity Assay)
# PIK3CD (Human), sequence (O00329 whole entry, looked up): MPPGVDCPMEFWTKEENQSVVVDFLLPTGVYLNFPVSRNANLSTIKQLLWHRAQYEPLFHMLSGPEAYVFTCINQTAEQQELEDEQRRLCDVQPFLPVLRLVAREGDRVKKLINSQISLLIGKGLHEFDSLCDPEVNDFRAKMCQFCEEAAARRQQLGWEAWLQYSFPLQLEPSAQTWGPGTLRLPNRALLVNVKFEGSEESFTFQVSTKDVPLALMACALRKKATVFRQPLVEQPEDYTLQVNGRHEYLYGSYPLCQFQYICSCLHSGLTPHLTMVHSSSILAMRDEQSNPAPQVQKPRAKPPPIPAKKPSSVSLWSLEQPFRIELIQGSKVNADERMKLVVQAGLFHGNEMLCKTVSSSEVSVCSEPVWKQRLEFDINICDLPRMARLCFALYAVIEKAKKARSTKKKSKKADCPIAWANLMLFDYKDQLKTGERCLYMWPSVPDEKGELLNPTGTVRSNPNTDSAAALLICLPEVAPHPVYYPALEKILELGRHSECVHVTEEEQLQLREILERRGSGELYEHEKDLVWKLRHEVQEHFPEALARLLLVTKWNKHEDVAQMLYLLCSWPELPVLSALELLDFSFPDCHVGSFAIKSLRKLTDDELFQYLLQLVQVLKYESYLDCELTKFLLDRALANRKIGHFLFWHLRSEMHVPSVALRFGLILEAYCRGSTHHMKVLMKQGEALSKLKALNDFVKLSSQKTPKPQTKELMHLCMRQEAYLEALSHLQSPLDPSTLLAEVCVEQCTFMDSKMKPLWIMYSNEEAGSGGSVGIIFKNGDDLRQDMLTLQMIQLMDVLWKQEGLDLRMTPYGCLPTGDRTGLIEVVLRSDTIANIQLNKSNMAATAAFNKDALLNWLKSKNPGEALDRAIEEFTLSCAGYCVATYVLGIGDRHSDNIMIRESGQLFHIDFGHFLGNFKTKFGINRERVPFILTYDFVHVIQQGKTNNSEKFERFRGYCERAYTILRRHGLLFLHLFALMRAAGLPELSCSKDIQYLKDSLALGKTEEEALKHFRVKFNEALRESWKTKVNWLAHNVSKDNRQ
row,SMILES,IC50 [nM]
1,CCOc1c(C(C)n2nc(C)c3c(N)ncnc32)cc(Cl)c(C#N)c1C1CN(C(C)(C)CO)C1 (stereo not drawn),≤ 10
2,CCOc1c(C(C)n2nc(-c3ccn(C)n3)c3c(N)ncnc32)cc(Cl)c(C)c1-c1ccc(C(=O)N(C)C)nc1 (stereo not drawn),≤ 10
3,COc1c(C(C)n2ccc(=O)c3c(N)ncnc32)cc(Cl)c(C)c1-c1cccnc1 (stereo not drawn),≤ 10
4,COc1c(C(C)n2nc(C)c3c(N)ncnc32)cc(Cl)c(C)c1C1CN(CC#N)C1 (stereo not drawn),≤ 10
5,CCOc1c(C(C)n2nc(C)c3c(N)ncnc32)cc(Cl)c(C#N)c1C1CN(C(=O)C(C)C)C1 (stereo not drawn),≤ 10
6,COc1c(C(C)n2nc(C)c3c(N)ncnc32)cc(Cl)c(C)c1C1CN(C(=O)C2(O)CC2)C1 (stereo not drawn),≤ 10
7,CCOc1c(C(C)n2nc(CC#N)c3c(N)ncnc32)cc(Cl)c(C)c1-c1ccc(C(=O)N(C)C)nc1 (stereo not drawn),≤ 10
8,CCOc1c(C(C)n2nc(C)c3c(N)ncnc32)cc(Cl)c(C#N)c1C1CN(CCO)C1 (stereo not drawn),≤ 10
9,CCOc1c(C(C)n2nc(C)c3c(N)ncnc32)cc(Cl)c(C#N)c1C1CN(C(C)C)C1 (stereo not drawn),≤ 10
10,COc1c(C(C)n2ccc(=O)c3c(N)ncnc32)cc(Cl)c(C)c1C1CN(C(C)C)C1 (stereo not drawn),≤ 10
11,CCOc1c(C(C)n2nc(C)c3c(N)ncnc32)cc(Cl)c(C#N)c1C1CN(C[C@H](C)O)C1 (stereo partly drawn),≤ 10
12,COc1c(C(C)n2nc(C)c3c(N)ncnc32)cc(Cl)c(F)c1C1CN(CCO)C1 (stereo not drawn),≤ 10
13,CCOc1c(C(C)n2nc(C)c3c(N)ncnc32)cc(Cl)c(C#N)c1N1CC(OC)C1 (stereo not drawn),≤ 10
14,CCOc1c(C(C)n2nc(C(F)F)c3c(N)ncnc32)cc(Cl)c(C)c1-c1ccc(C(=O)N(C)C)nc1 (stereo not drawn),≤ 10
15,CCOc1c(C(C)n2nc(C)c3c(N)ncnc32)cc(Cl)c(C#N)c1C1CN(C(=O)OC(C)C)C1 (stereo not drawn),≤ 10
16,COc1c(C(C)n2nc(C)c3c(N)ncnc32)cc(Cl)c(C#N)c1C1CN(CC(C)(C)O)C1 (stereo not drawn),≤ 10
17,CCOc1c(C(C)n2nc(C)c3c(N)ncnc32)cc(C#N)c(C)c1-c1cnn(C)c1 (stereo not drawn),≤ 10
18,COc1c(C(C)n2nc(C(F)F)c3c(N)ncnc32)cc(Cl)c(C)c1-c1ccc(C(=O)N(C)C)nc1 (stereo not drawn),≤ 10
19,COc1c(C(C)n2nc(C(F)F)c3c(N)ncnc32)cc(Cl)c(F)c1C1CN(C)C1 (stereo not drawn),≤ 10
20,CCOc1c(C(C)n2nc(C)c3c(N)ncnc32)cc(Cl)c(C#N)c1C1CN(CC(F)(F)F)C1 (stereo not drawn),≤ 10
21,COc1c(C(C)n2nc(C)c3c(N)ncnc32)cc(Cl)c(C)c1C1CN(CC2CC2)C1 (stereo not drawn),≤ 10

row,SMILES,IC50 [nM]
1,CCOc1c(C(C)n2nc(C)c3c(N)ncnc32)cc(Cl)c(F)c1C1CN(CC(C)(C)O)C1 (stereo not drawn),≤ 10
2,CCOc1c(C(C)n2nc(C)c3c(N)ncnc32)cc(Cl)c(C#N)c1-c1ccc(-c2cnn(C)n2)nc1 (stereo not drawn),≤ 10
3,CCOc1c(C(C)n2nc(C)c3c(N)ncnc32)cc(Cl)c(C#N)c1C1CN(CC(C)(C)O)C1 (stereo not drawn),≤ 10
4,CCOc1c(C(C)n2nc(C)c3c(N)ncnc32)cc(Cl)c(C#N)c1C1CN(CCOC)C1 (stereo not drawn),≤ 10
5,CCOc1c(C(C)n2cc(C)c3c(N)ncnc32)cc(Cl)c(C#N)c1C1CN(CCO)C1 (stereo not drawn),≤ 10
6,COc1c(C(C)n2ccc(=O)c3c(N)ncnc32)cc(Cl)c(C)c1-c1cncc(F)c1 (stereo not drawn),≤ 10
7,CCOc1c(C(C)n2nc(C)c3c(N)ncnc32)cc(Cl)c(C#N)c1-c1ccc(C2=[N+][N+]=C(C)O2)nc1 (stereo not drawn),≤ 10
8,CCOc1c(C(C)n2nc(-c3cnn(C)c3)c3c(N)ncnc32)cc(Cl)c(C)c1-c1ccc(C(=O)N(C)C)nc1 (stereo not drawn),≤ 10
9,COc1c(C(C)n2nc(C)c3c(N)ncnc32)cc(Cl)c(C#N)c1C1CN(C(C)CO)C1 (stereo not drawn),≤ 10
10,COc1c(C(C)n2nc(C)c3c(N)ncnc32)cc(Cl)c(C#N)c1-c1ccc(C(=O)N(C)C)nc1 (stereo not drawn),≤ 10
11,COc1c(C(C)n2nc(C)c3c(N)ncnc32)cc(Cl)c(C)c1-c1ccc(C(=O)N(C)C)nc1 (stereo not drawn),≤ 10
12,CCOc1c(C(C)n2nc(-c3cnc(N)nc3)c3c(N)ncnc32)cc(Cl)c(C)c1-c1ccc(C(=O)N(C)C)nc1 (stereo not drawn),≤ 10
13,COc1c(C(C)n2nc(C)c3c(N)ncnc32)cc(Cl)c(C#N)c1C1CN(C(=O)N(C)C)C1 (stereo not drawn),≤ 10
14,CCOc1c(C(C)n2ccc(=O)c3c(N)ncnc32)cc(Cl)c(C#N)c1-c1cncc(S(C)(=O)=O)c1 (stereo not drawn),≤ 10
15,CNC(=O)[C@@H](C)N1CC(c2c(C)c(C#N)cc(C(C)n3nc(C(F)F)c4c(N)ncnc43)c2OC)C1 (stereo partly drawn),≤ 10
16,COc1c(C(C)n2nc(C)c3c(N)ncnc32)cc(Cl)c(C#N)c1C1CN(C2CCOC2)C1 (stereo not drawn),≤ 10
17,CCOc1c(C(C)n2ccc(=O)c3c(N)ncnc32)cc(Cl)c(C#N)c1-c1ccc(C(=O)N(C)C)nc1 (stereo not drawn),≤ 10
18,COc1c(C(C)n2nc(C)c3c(N)ncnc32)cc(Cl)c(C)c1C1CN(C(=O)C2CC2)C1 (stereo not drawn),≤ 10
19,COc1c(C(C)n2ccc(=O)c3c(N)ncnc32)cc(Cl)c(C)c1-c1ccc(C(=O)N(C)C)nc1 (stereo not drawn),≤ 10
20,COc1c(C(C)n2nc(C)c3c(N)ncnc32)cc(Cl)c(C)c1C1CN(C[C@H](C)O)C1 (stereo partly drawn),≤ 10
21,COc1c(C(C)n2nc(C)c3c(N)ncnc32)cc(Cl)c(C)c1-c1ccc(C(=O)N(C)CCO)nc1 (stereo not drawn),≤ 10

row,SMILES,IC50 [nM]
1,CCOc1c(C(C)n2nc(C)c3c(N)ncnc32)cc(Cl)c(C#N)c1C1CN(CCC(F)(F)F)C1 (stereo not drawn),≤ 10
2,CCOc1c(C(C)n2nc(C)c3c(N)ncnc32)cc(Cl)c(F)c1C1CNC(=O)O1 (stereo not drawn),≤ 10
3,COc1c(C(C)n2nc(C)c3c(N)ncnc32)cc(Cl)c(C#N)c1C1CN(C(C)C)C1 (stereo not drawn),≤ 10
4,CCOc1c(C(C)n2nc(C)c3c(N)ncnc32)cc(Cl)c(C#N)c1-c1cncnc1 (stereo not drawn),≤ 10
5,CCOc1c(C(C)n2nc(C)c3c(N)ncnc32)cc(Cl)c(C#N)c1C1CN(C(=O)C(C)(C)O)C1 (stereo not drawn),≤ 10
6,COc1c(C(C)n2nc(C)c3c(N)ncnc32)cc(Cl)c(C)c1C1CN(C[C@H](O)C(F)(F)F)C1 (stereo partly drawn),≤ 10
7,Cc1c(Cl)cc(C(C)n2nc(C)c3c(N)ncnc32)c(OCC(F)F)c1-c1ccc(C(=O)N(C)C)nc1 (stereo not drawn),≤ 10
8,CNC(=O)[C@H](C)N1CC(c2c(C)c(C#N)cc(C(C)n3nc(C(F)F)c4c(N)ncnc43)c2OC)C1 (stereo partly drawn),≤ 10
9,COc1c(C(C)n2nc(C)c3c(N)ncnc32)cc(Cl)c(C)c1C1CN([C@@H](C)C(O)N(C)C)C1 (stereo partly drawn),≤ 10
10,COc1c(C(C)n2nc(C)c3c(N)ncnc32)cc(Cl)c(C)c1C1CCN(C)CC1 (stereo not drawn),≤ 10
11,COc1c(C(C)n2nc(C)c3c(N)ncnc32)cc(Cl)c(C#N)c1C1CN(C[C@@H](C)O)C1 (stereo partly drawn),≤ 10
12,CCC(C)N1CC(c2c(C)c(Cl)cc(C(C)n3nc(C)c4c(N)ncnc43)c2OC)C1 (stereo not drawn),≤ 10
13,CCOc1c(C(C)n2nc(C)c3c(N)ncnc32)cc(Cl)c(C#N)c1C1CN(C(C)(C)C(N)=O)C1 (stereo not drawn),≤ 10
14,CCNC(=O)c1c(C)c(Cl)cc(C(C)n2nc(-c3cc(O)cc(F)c3)c3c(N)ncnc32)c1OCC (stereo not drawn),≤ 10
15,CCOc1c(C(C)n2nc(C)c3c(N)ncnc32)cc(Cl)c(C#N)c1C1CN(CC2CCOCC2)C1 (stereo not drawn),≤ 10
16,COc1c(C(C)n2nc(C(F)F)c3c(N)ncnc32)cc(C#N)c(F)c1C1CN(CCO)C1 (stereo not drawn),≤ 10
17,COc1c(C(C)n2nc(C)c3c(N)ncnc32)cc(Cl)c(C#N)c1C1CN(C(=O)NC(C)(C)C)C1 (stereo not drawn),≤ 10
18,COc1c(C(C)n2nc(C)c3c(N)ncnc32)cc(Cl)c(C)c1C1CN(C(=O)c2cnoc2C)C1 (stereo not drawn),≤ 10
19,CCOc1c(C(C)n2nc(C)c3c(N)ncnc32)cc(Cl)c(C)c1-c1cnn(CC(N)=O)c1 (stereo not drawn),≤ 10
20,CCOc1c(C(C)n2nc(C)c3c(N)ncnc32)cc(Cl)c(F)c1C1CN(C)C1 (stereo not drawn),≤ 10
21,COc1c(C(C)n2nc(C)c3c(N)ncnc32)cc(Cl)c(C)c1C1CN(CC(F)F)C1 (stereo not drawn),≤ 10
